Test results: patent US8618289B2 (Ambit Biosciences Corporation, priority 2008, dated 2013)

Assays:
RAF kinases [1] = target: RAF kinases (Homo sapiens, UniProt P04049); details: read-out: RAF1 Kd; RAF1
RAF kinases [2] = target: RAF kinases (Homo sapiens, UniProt P15056); details: read-out: BRAF WT Kd; BRAF WT
RAF kinases [3] = target: RAF kinases (Homo sapiens, UniProt P15056, V600E); details: read-out: BRAF V600E Kd; BRAF V600E
[4] = tested on: MEK1 phosphorylation in the A375 human melanoma cell line; test: cells; details: A-375, read-out: pMEK IC50
A375 cells = test: cells; details: Homo sapiens, A-375, read-out: A375 Viability EC50

Chain of RAF kinases (Homo sapiens, UniProt P15056) (P15056 whole entry): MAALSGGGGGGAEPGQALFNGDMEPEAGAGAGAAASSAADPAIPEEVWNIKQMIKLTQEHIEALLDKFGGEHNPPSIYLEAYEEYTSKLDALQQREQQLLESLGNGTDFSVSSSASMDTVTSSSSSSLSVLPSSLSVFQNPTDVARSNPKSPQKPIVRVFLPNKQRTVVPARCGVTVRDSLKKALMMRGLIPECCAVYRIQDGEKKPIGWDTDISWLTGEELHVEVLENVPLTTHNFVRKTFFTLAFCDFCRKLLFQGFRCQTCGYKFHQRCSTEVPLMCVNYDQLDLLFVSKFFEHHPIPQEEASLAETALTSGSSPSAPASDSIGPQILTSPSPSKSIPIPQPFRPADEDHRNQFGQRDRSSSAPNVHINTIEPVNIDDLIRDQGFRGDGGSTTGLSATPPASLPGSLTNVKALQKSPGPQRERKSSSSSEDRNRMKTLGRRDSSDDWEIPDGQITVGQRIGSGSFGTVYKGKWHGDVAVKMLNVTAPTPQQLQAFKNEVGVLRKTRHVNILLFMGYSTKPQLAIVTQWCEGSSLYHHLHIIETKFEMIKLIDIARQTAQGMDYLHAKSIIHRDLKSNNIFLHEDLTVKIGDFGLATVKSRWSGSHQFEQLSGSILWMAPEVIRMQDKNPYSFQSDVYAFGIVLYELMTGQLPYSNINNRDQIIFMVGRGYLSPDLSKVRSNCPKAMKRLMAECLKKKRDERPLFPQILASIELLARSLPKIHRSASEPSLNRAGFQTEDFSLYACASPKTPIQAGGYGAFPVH
Chain of RAF kinases (Homo sapiens, UniProt P15056, V600E) (P15056 whole entry V600E): as the sequence (P15056 whole entry) above, with V600E counted along it
Chain of RAF kinases (Homo sapiens, UniProt P04049) (P04049 whole entry): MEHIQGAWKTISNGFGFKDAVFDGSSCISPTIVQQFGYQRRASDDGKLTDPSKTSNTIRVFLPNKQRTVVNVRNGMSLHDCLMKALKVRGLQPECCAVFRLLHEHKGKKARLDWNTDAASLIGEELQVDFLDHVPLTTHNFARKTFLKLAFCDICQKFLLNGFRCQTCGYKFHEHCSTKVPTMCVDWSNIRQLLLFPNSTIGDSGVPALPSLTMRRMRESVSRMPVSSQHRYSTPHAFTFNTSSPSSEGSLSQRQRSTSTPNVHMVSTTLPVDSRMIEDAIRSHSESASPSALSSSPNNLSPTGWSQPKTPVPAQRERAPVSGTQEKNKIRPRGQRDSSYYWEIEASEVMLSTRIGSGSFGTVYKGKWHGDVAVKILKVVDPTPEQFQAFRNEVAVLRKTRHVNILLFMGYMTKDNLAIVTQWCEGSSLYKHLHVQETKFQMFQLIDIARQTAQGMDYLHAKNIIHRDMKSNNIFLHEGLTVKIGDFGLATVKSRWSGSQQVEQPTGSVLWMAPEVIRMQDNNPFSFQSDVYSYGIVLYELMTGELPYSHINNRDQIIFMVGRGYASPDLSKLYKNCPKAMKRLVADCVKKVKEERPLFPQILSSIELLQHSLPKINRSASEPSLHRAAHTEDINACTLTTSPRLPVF

Row | Structure (SMILES) | Kd (RAF kinases [1]) [nM] | Kd (RAF kinases [2]) [nM] | Kd (RAF kinases [3]) [nM] | IC50 [4] [nM] | EC50 (A375 cells) [nM]
1 | CCOc1cc2c(Sc3cccc(NC(=O)Nc4cc(C(C)(C)C(F)(F)F)on4)c3)ncnc2cc1OC [Ex 262, 1-(3-(6-ethoxy-7-methoxyquinazolin-4-ylthio)phenyl)-3-(5-(1,1,1-trifluoro-2-methylpropan-2-yl)isoxazol-3-yl)urea] | < 250 | < 250 | < 250 | < 250 | > 1000
2 | COc1cc2c(Oc3cccc(NC(=O)Nc4cc(C(C)(C)C(F)(F)F)on4)c3)ncnc2cc1O [Ex 263, 1-(3-(7-hydroxy-6-methoxyquinazolin-4-yloxy)phenyl)-3-(5-(1,1,1-trifluoro-2-methylpropan-2-yl)isoxazol-3-yl)urea] | < 250 | < 250 | < 250 | < 250 | 500 to 1000
3 | COc1cc2ncnc(Oc3cccc(NC(=O)Nc4cc(C(C)(C)C(F)(F)F)on4)c3)c2cc1O [Ex 264, 1-(3-(6-hydroxy-7-methoxyquinazolin-4-yloxy)phenyl)-3-(5-(1,1,1-trifluoro-2-methylpropan-2-yl)isoxazol-3-yl)urea] | < 250 | < 250 | < 250 | < 250 | < 250
4 | COc1cc2ncnc(Oc3cccc(NC(=O)Nc4cc(C(C)(C)C(F)(F)F)no4)c3)c2cc1OC [Ex 267, 1-(3-(6,7-dimethoxyquinazolin-4-yloxy)phenyl)-3-(3-(1,1,1-trifluoro-2-methylpropan-2-yl)isoxazol-5-yl)urea] | < 250 | < 250 | < 250 | < 250 | 500 to 1000
5 | COc1cc2ncnc(Sc3cccc(NC(=O)Nc4cc(C(C)(C)C(F)(F)F)no4)c3)c2cc1OC [Ex 268, 1-(3-(6,7-dimethoxyquinazolin-4-ylthio)phenyl)-3-(3-(1,1,1-trifluoro-2-methylpropan-2-yl)isoxazol-5-yl)urea] | < 250 | < 250 | < 250 | < 250 | 500 to 1000
6 | COc1cc2ncnc(Oc3cc(NC(=O)Nc4cc(C(C)(C)F)no4)c(F)cc3F)c2cc1OC [Ex 269, 1-(5-(6,7-dimethoxyquinazolin-4-yloxy)-2,4-difluorophenyl)-3-(3-(2-fluoropropan-2-yl)isoxazol-5-yl)urea] | < 250 | < 250 | < 250 | < 250 | < 250
7 | COc1cc2ncnc(Oc3cc(NC(=O)Nc4cc(C(C)(C)C)on4)c(F)cc3F)c2cc1OC [Ex 270, 1-(5-tert-butylisoxazol-3-yl)-3-(5-(6,7-dimethoxyquinazolin-4-yloxy)-2,4-difluorophenyl)urea] | < 250 | < 250 | < 250 | < 250 | < 250
8 | COc1cc2ncnc(Oc3cccc(NC(=O)Nc4cccc(C(C)(C)C#N)c4)c3)c2cc1OC [Ex 278, 1-(3-(2-cyanopropan-2-yl)phenyl)-3-(3-(6,7-dimethoxyquinazolin-4-yloxy)phenyl)urea] | < 250 | < 250 | < 250 | 250 to 500 | 500 to 1000
9 | COc1cc2ncnc(Sc3cccc(NC(=O)Nc4cccc(C(C)(C)C#N)c4)c3)c2cc1OC [Ex 279, 1-(3-(2-cyanopropan-2-yl)phenyl)-3-(3-(6,7-dimethoxyquinazolin-4-ylthio)phenyl)urea] | < 250 | < 250 | < 250 | 250 to 500 | > 1000
10 | COCCOc1cc2ncnc(Oc3cccc(NC(=O)Nc4cccc(C(C)(C)C#N)c4)c3)c2cc1OC [Ex 280, 1-(3-(2-cyanopropan-2-yl)phenyl)-3-(3-(6-methoxy-7-(2-methoxyethoxy)quinazolin-4-yloxy)phenyl)urea] | < 250 | < 250 | < 250 | 500 to 1000 | > 1000
11 | COc1cc2ncnc(Sc3cccc(NC(=O)Nc4cc(C(C)(C)C)nn4-c4ccc(C)cc4C)c3)c2cc1OC [Ex 284, 1-(3-tert-butyl-1-(2,4-dimethylphenyl)-1H-pyrazol-5-yl)-3-(3-(6,7-dimethoxyquinazolin-4-ylthio)phenyl)urea] | > 1000 | > 1000 | > 1000 | < 250 | > 1000
12 | COc1cc2ncnc(Oc3cccc(NC(=O)Nc4cc(C(C)(C)F)no4)c3F)c2cc1OC [Ex 296, 1-(3-(6,7-dimethoxyquinazolin-4-yloxy)-2-fluorophenyl)-3-(3-(2-fluoropropan-2-yl)isoxazol-5-yl)urea] | < 250 | < 250 | < 250 | > 1000 | > 1000
13 | COc1cc2ncnc(Oc3cccc(NC(=O)Nc4cc(C(C)(CF)CF)on4)c3F)c2cc1OC [Ex 297, 1-(5-(1,3-difluoro-2-methylpropan-2-yl)isoxazol-3-yl)-3-(3-(6,7-dimethoxyquinazolin-4-yloxy)-2-fluorophenyl)urea] | < 250 | < 250 | < 250 | 250 to 500 | 250 to 500
14 | COc1cc2ncnc(Oc3ccc(Cl)c(NC(=O)Nc4cc(C(C)(C)C)nn4-c4ccc(C)cc4)c3)c2cc1OC [Ex 298, 1-(3-tert-butyl-1-p-tolyl-1H-pyrazol-5-yl)-3-(2-chloro-5-(6,7-dimethoxyquinazolin-4-yloxy)phenyl)urea] | > 1000 | > 1000 | > 1000 | < 250 | < 250
15 | COc1cc2ncnc(Oc3ccc(Cl)c(NC(=O)Nc4cc(C(C)(C)C)nn4-c4ccccc4)c3)c2cc1OC [Ex 301, 1-(3-tert-butyl-1-phenyl-1H-pyrazol-5-yl)-3-(2-chloro-5-(6,7-dimethoxyquinazolin-4-yloxy)phenyl)urea] | > 1000 | > 1000 | > 1000 | < 250 | 250 to 500
16 | COc1cc2ncnc(Oc3ccc(F)c(NC(=O)Nc4cc(C(C)(C)C)on4)c3)c2cc1OC [Ex 367, 1-(5-tert-butylisoxazol-3-yl)-3-(5-(6,7-dimethoxyquinazolin-4-yloxy)-2-fluorophenyl)urea] | < 250 | < 250 | < 250 | < 250 | 250 to 500
17 | COc1cc2ncnc(Oc3cccc(NC(=O)Nc4cc(C5(C(F)(F)F)CC5)on4)c3)c2cc1OC [Ex 377, 1-(3-(6,7-dimethoxyquinazolin-4-yloxy)phenyl)-3-(5-(1-(trifluoromethyl)cyclopropyl)isoxazol-3-yl)urea] | < 250 | < 250 | < 250 | < 250 | < 250
18 | COc1cc2ncnc(Sc3cccc(NC(=O)Nc4cc(C5(C(F)(F)F)CC5)on4)c3)c2cc1OC [Ex 378, 1-(3-(6,7-dimethoxyquinazolin-4-ylthio)phenyl)-3-(5-(1-(trifluoromethyl)cyclopropyl)isoxazol-3-yl)urea] | < 250 | < 250 | < 250 | 250 to 500 | < 250
19 | COc1cc2ncnc(Sc3cccc(NC(=O)Nc4cc(C(F)(F)F)no4)c3)c2cc1OC [Ex 382, 1-(3-(6,7-dimethoxyquinazolin-4-ylthio)phenyl)-3-(3-(trifluoromethyl)isoxazol-5-yl)urea] | < 250 | < 250 | < 250 | > 1000 | > 1000
20 | CCOc1cc2ncnc(Oc3cccc(NC(=O)Nc4cc(C(C)(C)F)no4)c3)c2cc1OC [Ex 385, 1-(3-(7-ethoxy-6-methoxyquinazolin-4-yloxy)phenyl)-3-(3-(2-fluoropropan-2-yl)isoxazol-5-yl)urea] | < 250 | < 250 | < 250 | 250 to 500 | 250 to 500
21 | CCOc1cc2ncnc(Oc3cccc(NC(=O)Nc4cc(C(C)(CF)CF)on4)c3)c2cc1OC [Ex 386, 1-(5-(1,3-difluoro-2-methylpropan-2-yl)isoxazol-3-yl)-3-(3-(7-ethoxy-6-methoxyquinazolin-4-yloxy)phenyl)urea] | < 250 | < 250 | < 250 | < 250 | < 250
22 | CCOc1cc2ncnc(Sc3cccc(NC(=O)Nc4cc(C(C)(C)F)no4)c3)c2cc1OC [Ex 389, 1-(3-(7-ethoxy-6-methoxyquinazolin-4-ylthio)phenyl)-3-(3-(2-fluoropropan-2-yl)isoxazol-5-yl)urea] | < 250 | < 250 | < 250 | 500 to 1000 | 250 to 500
23 | CCOc1cc2c(Oc3cccc(NC(=O)Nc4cc(C(C)(C)F)no4)c3)ncnc2cc1OC [Ex 392, 1-(3-(6-ethoxy-7-methoxyquinazolin-4-yloxy)phenyl)-3-(3-(2-fluoropropan-2-yl)isoxazol-5-yl)urea] | < 250 | < 250 | < 250 | < 250 | < 250
24 | CCOc1cc2c(Oc3cccc(NC(=O)Nc4cc(C(C)(CF)CF)on4)c3)ncnc2cc1OC [Ex 393, 1-(5-(1,3-difluoro-2-methylpropan-2-yl)isoxazol-3-yl)-3-(3-(6-ethoxy-7-methoxyquinazolin-4-yloxy)phenyl)urea] | < 250 | < 250 | < 250 | < 250 | < 250
25 | CCOc1cc2c(Sc3cccc(NC(=O)Nc4cc(C(C)(C)F)no4)c3)ncnc2cc1OC [Ex 394, 1-(3-(6-ethoxy-7-methoxyquinazolin-4-ylthio)phenyl)-3-(3-(2-fluoropropan-2-yl)isoxazol-5-yl)urea] | < 250 | < 250 | < 250 | < 250 | 250 to 500
